# Assay results from article PMC10977726 (PLOS ONE, 2024).
# What was measured:
# human IgG Fc = target: T1, human IgG Fc (Homo sapiens, UniProt P01857); assay: Phage competition ELISA for epitope mapping (various synthetic DCPs vs phage displaying one DCP); assay type: binding
# T1 construct: Biotin-SP-ChromPure Human IgG, Fc fragment; purchased Jackson Immunoresearch Labs Inc. 009060008
# [1] = 100% human serum, 0.2 mM DCP, 37°C, LC-MS, UV 220 nm peak area normalized to 0 h, three independent experiments
smiles,measurement,setting,value
CC[C@H](C)[C@@H]1NC(=O)[C@H](CO)NC(=O)[C@H]([C@@H](C)CC)NC(=O)[C@H](CO)NC(=O)[C@H](CO)NC(=O)[C@@H]2CSSC[C@@H]3NC(=O)[C@H](CO)NC(=O)CNC(=O)[C@H]([C@@H](C)O)NC(=O)[C@H](CSSC[C@H](NC(=O)[C@@H](N)CCC(=O)O)C(=O)N[C@@H](CCCCN)C(=O)NCC(=O)N[C@@H](CCCCN)C(=O)NCC(=O)N[C@@H](C)C(=O)N[C@@H](CCCCN)C(=O)N2)NC(=O)[C@H](CSSC[C@@H](C(=O)O)NC(=O)[C@H](CCCCN)NC(=O)CNC(=O)[C@H](CO)NC(=O)[C@H](CCCNC(=N)N)NC3=O)NC(=O)[C@H](Cc2c[nH]cn2)NC(=O)[C@H](C)NC(=O)[C@H](CC(=O)O)NC(=O)[C@H](Cc2c[nH]cn2)NC1=O [Ig-CON-5],inhibition of interaction between biotinylated hIgG Fc and phage displaying Ig-AMP-1,human IgG Fc; Fig 4D,potently inhibited
same,inhibition of interaction between human IgG Fc and phage displaying Ig-CON-5,human IgG Fc; Fig S15,potently inhibited
same,loss of peptides after 24 h,[1],40–50%
